Experimental findings from ChEMBL document CHEMBL1759884, “Synthesis and evaluation of bibenzyl glycosides as potent tyrosinase inhibitors” (Eur J Med Chem, 2011) are described below.

In this test the target is Tyrosinase (Agaricus bisporus). The experiment in a line: Inhibition of Tyrosinase.
On to `OC[C@H]1O[C@@H](Oc2ccc(CCc3ccc(O)cc3O)c(O)c2)[C@H](O)[C@@H](O)[C@@H]1O`, for which 770 nM corresponded to half-maximal inhibition (IC50).

The compound `OC[C@H]1O[C@@H](O[C@H]2[C@H](O)[C@@H](O)[C@H](Oc3ccc(CCc4ccc(O)cc4O)c(O)c3)O[C@@H]2CO)[C@H](O)[C@@H](O)[C@@H]1O` yielded an IC50 of 680 nM.

In turn, `OC[C@H]1O[C@H](O[C@H]2[C@H](O)[C@@H](O)[C@H](Oc3ccc(CCc4ccc(O)cc4O)c(O)c3)O[C@@H]2CO)[C@H](O)[C@@H](O)[C@@H]1O` returned an IC50 of 830 nM.

In turn, `Oc1ccc(CCc2ccc(O)cc2O[C@@H]2OC[C@@H](O)[C@H](O)[C@H]2O)c(O)c1` displayed an IC50 of 1600 nM. Against the preceding compound, the IC50 is about 1.9-fold higher.

For `Oc1ccc(CCc2ccc(O[C@@H]3OC[C@@H](O)[C@H](O)[C@H]3O)cc2O)c(O)c1`, it took 430 nM to reach half-maximal inhibition (IC50).

The IC50 is the concentration that inhibits the measured activity by half.
